Test results: PMC7366314 (ACS chemical biology, 2020)

Experiments:
[1] = Ex vivo mouse plasma stability testing; assay type: in vitro ADME; settings: for plasma half-life, fold greater than the natural GLP-1 peptide: ex vivo mouse plasma, 10 μM, 37°C, LC/MS/MS
B6 mice = test: Glucose tolerance test; assay type: in vivo, mouse; settings: B6 mice fasted overnight, 10 nmol/kg IP, glucose 2 g/kg IP 30 min later
Leprdb mice = test: Anti-hyperglycemic effect in diabetic Leprdb; assay type: in vivo, mouse; settings: single IP injection 10 nmol/kg
proteinase K = proteinase K (Parengyodontium album, UniProt P06873); test: Peptide proteolysis assay with proteinase K, intact peptide by LC/MS; settings: 50 mM Tris HCl pH 7.4, LC/MS
Sequence of proteinase K (P06873 106-384): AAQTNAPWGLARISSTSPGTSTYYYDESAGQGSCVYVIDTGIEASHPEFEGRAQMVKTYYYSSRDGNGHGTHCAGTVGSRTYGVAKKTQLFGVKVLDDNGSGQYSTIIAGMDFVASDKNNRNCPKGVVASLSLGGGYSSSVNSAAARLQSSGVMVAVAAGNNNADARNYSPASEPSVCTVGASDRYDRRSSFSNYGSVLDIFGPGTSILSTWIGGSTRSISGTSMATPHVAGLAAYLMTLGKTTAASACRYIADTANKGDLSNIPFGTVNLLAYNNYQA

| SMILES | plasma half-life, fold greater than the natural GLP-1 peptide [1] [fold] | half-life at 10 µM ([1]; mouse, plasma (freshly drawn, lithium heparin)) [h] | time to euglycemia after the glucose bolus (GTT) (B6 mice) [min] | initial reduction in serum glucose (Leprdb mice; 15 min p=0.0032, 30 min p=0.0001 vs semaglutide) | fold reduction in glucose level compared to vehicle and wild-type GLP-1 (Leprdb mice; sustained for 12 hours, n=8) | fold improvement of proteinase K half-life compared to control (wild-type) GLP-1 (proteinase K) |
| --- | --- | --- | --- | --- | --- | --- |
| CC[C@H](C)[C@@H]1NC(=O)[C@H](Cc2ccccc2)NC(=O)[C@H](CCC(=O)O)NC(=O)[C@H](CCCCN)NC(=O)[C@H](C)NC(=O)[C@H](C)NC(=O)[C@@]2(CCCC=CCCCCCC[C@@](C)(NC(=O)[C@H](CC(=O)O)NC(=O)[C@H](CO)NC(=O)[C@@H](NC(=O)[C@H](Cc3ccccc3)NC(=O)[C@@H](NC(=O)CNC(=O)[C@H](CCC(=O)O)NC(=O)C(C)(C)NC(=O)[C@@H](N)Cc3c[nH]cn3)[C@@H](C)O)[C@@H](C)O)C(=O)N[C@@H](CO)C(=O)N[C@@H](CO)C(=O)N[C@@H](Cc3ccc(O)cc3)C(=O)N[C@@H](CC(C)C)C(=O)N[C@@H](CCC(=O)O)C(=O)NCC(=O)N2)CCCC=CCCCCCC[C@@](C)(C(=O)N[C@@H](Cc2c[nH]c3ccccc23)C(=O)N[C@@H](CC(C)C)C(=O)N[C@H](C(=O)N[C@@H](CCCCN)C(=O)NCC(=O)N[C@@H](CCCNC(=N)N)C(N)=O)C(C)C)NC1=O [SAH-GLP-1-A8J(16,23,30)] | 23 | 5.33 | ≤ 60 | more rapid, initial reduction in serum glucose compared to semaglutide | 2–2.5 fold | over 24 fold |
| CC[C@H](C)[C@H](NC(=O)[C@H](Cc1ccccc1)NC(=O)[C@H](CCC(=O)O)NC(=O)[C@H](CCCCNC(=O)COCCOCCNC(=O)COCCOCCNC(=O)CC[C@H](NC(=O)CCCCCCCCCCCCCCCCC(=O)O)C(=O)O)NC(=O)[C@H](C)NC(=O)[C@H](C)NC(=O)[C@H](CCC(N)=O)NC(=O)CNC(=O)[C@H](CCC(=O)O)NC(=O)[C@H](CC(C)C)NC(=O)[C@H](Cc1ccc(O)cc1)NC(=O)[C@H](CO)NC(=O)[C@H](CO)NC(=O)[C@@H](NC(=O)[C@H](CC(=O)O)NC(=O)[C@H](CO)NC(=O)[C@@H](NC(=O)[C@H](Cc1ccccc1)NC(=O)[C@@H](NC(=O)CNC(=O)[C@H](CCC(=O)O)NC(=O)C(C)(C)NC(=O)[C@@H](N)Cc1cnc[nH]1)[C@@H](C)O)[C@@H](C)O)C(C)C)C(=O)N[C@@H](C)C(=O)N[C@@H](Cc1c[nH]c2ccccc12)C(=O)N[C@@H](CC(C)C)C(=O)N[C@H](C(=O)N[C@@H](CCCNC(=N)N)C(=O)NCC(=O)N[C@@H](CCCNC(=N)N)C(=O)NCC(=O)O)C(C)C [semaglutide, reference compound] | 12 |  |  |  |  |  |
